Measurements from PubChem BioAssay (NCI).
Values joined by “and” are separate entries in the source; they are usually repeats but may differ in a detail not shown here. Equal entries are not always repeated.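 Method: 48-hour compound exposure of cells in 96-well plates, five concentrations, linear interpolation of endpoints. Abbreviation: GI50, concentration required for 50% inhibition of growth. Definition used: TGI = concentration required for complete inhibition of growth.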

Legend:
Assay in all cases: growth of human tumour cells (NCI), 48 h
COLO 205 colon = tested on: COLO 205 colon
DLD-1 colon = tested on: DLD-1 colon
DMS 114 small cell lung = tested on: DMS 114 small cell lung
LOX IMVI melanoma = tested on: LOX IMVI melanoma
NCI-H23 lung = tested on: NCI-H23 lung
NCI-H522 lung = tested on: NCI-H522 lung
OVCAR-4 ovarian = tested on: OVCAR-4 ovarian
UACC-257 melanoma = tested on: UACC-257 melanoma
MDA-MB-231 breast = tested on: MDA-MB-231 breast
NCI/ADR-RES ovarian = tested on: NCI/ADR-RES ovarian

| Compound | TGI (COLO 205 colon) | TGI (DLD-1 colon) | TGI (DMS 114 small cell lung) | TGI (LOX IMVI melanoma) | TGI (NCI-H23 lung) | TGI (NCI-H522 lung) | TGI (OVCAR-4 ovarian) | TGI (UACC-257 melanoma) | TGI (MDA-MB-231 breast) | TGI (NCI/ADR-RES ovarian) [µM] | GI50 (COLO 205 colon) | GI50 (DLD-1 colon) | GI50 (DMS 114 small cell lung) [µM] | GI50 (LOX IMVI melanoma) | GI50 (NCI-H23 lung) | GI50 (OVCAR-4 ovarian) [µM] | GI50 (UACC-257 melanoma) | GI50 (MDA-MB-231 breast) | GI50 (NCI-H522 lung) | GI50 (NCI/ADR-RES ovarian) [µM] |
| --- | --- | --- | --- | --- | --- | --- | --- | --- | --- | --- | --- | --- | --- | --- | --- | --- | --- | --- | --- | --- |
| O=C(N/C(=C\c1c(O)ccc2ccccc12)c1nc2ccccc2[nH]1)c1ccccc1 | > 100 µM | > 100 µM | > 100 µM | > 100 µM | > 100 µM | > 100 µM | > 100 µM | > 100 µM |  |  |  |  |  |  |  |  |  |  |  |  |
| O=C(Nc1cc(Cl)ccc1Cl)c1cc2cccc(Br)c2oc1=O | > 100 µM | > 100 µM | > 100 µM | > 100 µM | > 100 µM | > 100 µM |  | > 100 µM |  |  |  |  |  |  |  |  |  |  |  |  |
| O=c1nc(NC(c2ccccc2)(c2ccccc2)c2ccccc2)ccn1CCCl | 64.7 µM | > 100 µM | 37.9 µM | 31.8 µM | 56 µM | 41.4 µM | 53.1 µM |  |  |  |  |  |  |  |  |  |  |  |  |  |
| CSC(=Nc1ccccc1Cl)NC(=O)c1ccc(Br)cc1 | > 100 µM | > 100 µM | > 100 µM | > 100 µM | > 100 µM | > 100 µM | 38.4 µM | > 100 µM |  |  |  |  |  |  |  |  |  |  |  |  |
| COc1cc(O)c(C(=O)CC(C)=O)c(OC)c1 | > 100 µM | > 100 µM | > 100 µM | > 100 µM | > 100 µM | > 100 µM | > 100 µM | > 100 µM |  |  |  |  |  |  |  |  |  |  |  |  |
| COC1(OC)C2(Cl)C(Cl)=C(Cl)C1(Cl)C1c3ccc(C(C)=O)c4cccc(c34)C12 (stereo not given) | 34.8 µM |  | > 100 µM | > 100 µM | > 83 µM | > 70.2 µM | > 100 µM | > 100 µM | > 100 µM | > 100 |  |  |  |  |  |  |  |  |  |  |
| CCCN(CCC)CCc1cc(C(C)=O)n(S(=O)(=O)c2ccc(C)cc2)c1 | > 100 µM | > 100 µM | > 100 µM |  | > 100 µM | > 100 µM | > 100 µM | > 100 µM |  |  |  |  |  |  |  |  |  |  |  |  |
| CCN(CCCl)CCCCCNc1c2ccccc2nc2ccc(OC)cc12 | 3.03 µM | 2.95 µM | 1.91 µM | 1.09 µM | 1.55 µM | 2.03 µM | 3.42 µM | 10.8 µM |  |  |  |  |  |  |  |  |  |  |  |  |
| Cc1cc2c(c3nocc13)C(=O)c1ccccc1C2=O | > 100 µM | > 100 µM | > 100 µM | > 100 µM | > 100 µM | > 100 µM | > 100 µM | > 100 µM |  |  |  |  |  |  |  |  |  |  |  |  |
| CN(C)CCNC(=O)c1cccc2nc3ccc4cccnc4c3nc12 | 1.55 µM | 8.36 µM | 2.12 µM | 1.51 µM | 1.35 µM |  | 3.21 µM | 1.63 µM |  |  |  |  |  |  |  |  |  |  |  |  |
| CC(C)=O.O=C([O-])C(F)(F)F.O=C([O-])C(F)(F)F.O=C([O-])C(F)(F)F.O=C([O-])C(F)(F)F.[Rh+2].[Rh+2] | > 100 µM | > 100 µM | 90.3 µM | > 100 µM | > 100 µM |  | > 100 µM | > 100 µM |  |  | 96.1 µM | > 100 µM | 26.8 | 53.3 µM | 46.7 µM | 69.7 | > 100 µM |  |  |  |
| CC(C)(CN1CCOCC1)C(=O)/C=C/c1ccc(/C=C/C(=O)C(C)(C)CN2CCOCC2)cc1 | 3.01 µM | 1.19 µM | 2.16 µM | 1.54 µM |  | 0.928 µM | 2.4 µM |  |  |  |  |  |  |  |  |  |  |  |  |  |
| COc1ccc2c3c(c(C(=O)O)oc13)CCC2 | > 100 µM | > 100 µM | > 100 µM | > 100 µM | > 100 µM | > 100 µM | > 100 µM | > 100 µM |  |  |  |  |  |  |  |  |  |  |  |  |
| S=c1nc(C(c2ccccc2)c2ccccc2)[nH][nH]1 | > 100 µM | > 100 µM | > 100 µM | > 100 µM | > 100 µM | > 100 µM |  | > 100 µM |  |  |  |  |  |  |  |  |  |  |  |  |
| Cc1cc(C)nc(NS(=O)(=O)c2ccc(Nc3c4ccccc4nc4c(C(=O)Nc5ccc(S(=O)(=O)Nc6cc(C)on6)cc5)ccc(Cl)c34)cc2)n1 |  | 33.3 µM |  | > 100 µM | 59.7 µM | 51.4 µM | 65.3 µM | 91.3 µM |  |  |  |  |  |  |  |  |  |  |  |  |
| CC(N)Cc1ccc(Cl)cc1 (stereo not given) | > 100 µM | > 100 µM |  | > 100 µM | > 100 µM | > 100 µM | > 100 µM | > 100 µM |  |  |  |  |  |  |  |  |  |  |  |  |
| Cc1cc(Br)cc(C)c1NC(=O)C(=O)C(C(=O)c1ccncc1)C1OC(=O)c2ccccc21 (stereo not given) | > 100 µM | > 100 µM | > 100 µM | > 100 µM | > 100 µM | > 100 µM | > 100 µM | > 100 µM |  |  |  |  |  |  |  |  |  |  |  |  |
| COc1cc2c(c(O)c1C)C(=O)CC(c1ccccc1)O2 (stereo not given) |  | > 100 µM | > 100 µM | > 10 µM | > 100 µM | > 100 µM | > 10 µM | > 100 µM |  |  |  |  |  |  |  |  |  |  |  |  |
| COC1CC(C)C(OC)c2cc(O)cc(c2O)NC(=O)/C(C)=C/C=C\C(C)C(OC(N)=O)/C(C)=C\C(C)C1OC (stereo not given) | 7.12 µM and 2.8 µM | 10.5 µM and 11.2 µM | 23.2 µM and 5.28 µM | 1.74 µM and 6.91 µM | 5.59 µM and 4.37 µM | 0.683 µM and 0.913 µM | 7.87 µM and 10.1 µM | 10.3 µM and 10.5 µM | 10.3 µM and 8.54 µM |  | 0.0414 µM and 0.0785 µM | 4.65 µM and 5.28 µM | 0.202 | 0.165 µM and 0.255 µM | 0.169 µM and 0.179 µM | 2.51 | 0.561 µM and 0.693 µM | 0.291 µM and 0.243 µM and 1.16 µM | 0.0575 µM and 0.0989 µM |  |
| COc1cc(OC)c(/C=C/C(=O)c2ccc(Nc3ncnc4ccccc34)cc2)c(OC)c1 | 2.22 µM |  |  | 6.52 µM | 11.5 µM | 1.44 µM | 3.05 µM | 3.89 µM | 4.11 µM | 2.55 | 0.614 µM |  |  | 1.06 µM | 0.843 µM | 1.21 | 1.24 µM | 1.43 µM | 0.296 µM | 0.394 |
| c1ccc2cc(Cn3cc[n+](Cc4ccc5ccccc5c4)c3)ccc2c1 | 1.67 µM |  |  | 2.39 µM | 10.1 µM | 3.11 µM | 2.97 µM | 2.55 µM | 2.53 µM | > 100 | 0.4 µM |  |  | 1.1 µM | 0.901 µM | 0.339 | 0.587 µM | 0.729 µM | 0.393 µM | > 100 |
| COc1cccc2c1C(=O)c1c(O)c3c(c(O)c1C2=O)C[C@@](O)(C(C)=O)C[C@@H]3OC1CC([N+]([O-])(Cc2ccccc2)Cc2ccccc2)C(O)C(C)O1 (stereo not given in full) |  | 3.22 µM | 2.64 µM | 2.41 µM | 2.58 µM | 2.68 µM | 4.17 µM | 3.17 µM |  |  |  |  |  |  |  |  |  |  |  |  |
| O=C(O)C(Br)C(Br)C(=O)O (stereo not given) | > 100 µM |  |  | > 100 µM | > 100 µM | > 100 µM | > 100 µM | > 100 µM | > 100 µM | > 100 |  |  |  |  |  |  |  |  |  |  |
